Data on one compound can be found in patent publication US20140288115A1, “COMPOSITIONS AND METHODS FOR TREATING BRAIN CANCER” (UNIVERSITY OF SOUTHERN CALIFORNIA, priority 2011, published 2014).

Data set [1] concerns TMZ-resistant glioma cell lines. As to the kind of experiment: cytotoxicity of noscapine in TMZ-resistant glioma cell lines. Format: cell-based.
In data set [2] the test system is TMZ-resistant tumor cells. As to the kind of experiment: migration and invasion of TMZ-resistant tumor cells. It is filed as cell-based.
For data set [3] the following is noted: in vivo, cited from earlier work.
For data set [4], the system named is TMZ-resistant U251 glioma cells. As to the kind of experiment: intracranial rodent xenograft tumor model, survival. It is filed as in vivo, nude mice. The text has this:
TMZ-resistant U251 glioma cells (R) were implanted intracranially into nude mice. After 7 days, treatment was initiated. […] Survival was used as an endpoint; * signifies statistical significance (p<0.05).
After 7 days, treatment was initiated.

In the case of `COc1ccc2c(c1OC)C(=O)O[C@@H]2[C@H]1c2c(cc3c(c2OC)OCO3)CCN1C` [noscapine, (3S)-6,7-Dimethoxy-3-[(5R)-5,6,7,8-tetrahydro-4-methoxy-6-methyl-1,3-dioxolo (4,5-g)isoquinolin-5-yl]-1(3H)-isobenzofuranone], the cell death result in data set [1] (4 different TMZ-resistant glioma cell lines) is “caused cell death”. In addition, the cell cycle arrest result in data set [1] (TMZ-resistant glioma cell lines, prolonged arrest causes cell cytotoxicity) is reported as “caused an arrest in the G2/M phase of cell cycle”. For the same compound, in data set [2], the “invasion of TMZ-resistant tumor cells” value is on record as “decreased” and the “migration of TMZ-resistant tumor cells” value was “decreased”. Besides, the oral bioavailability entry in data set [3] (po) is on record as “orally bioavailable”. The “crossing of the blood-brain-barrier” value in data set [3] is listed as “known to cross the blood-brain-barrier”. Moreover, the tumor growth result in data set [4] (animal models) is reported as “reduced tumor growth”. Moreover, the “survival of TMZ-resistant tumor bearing animals” value in data set [4] (noscapine 225 mg/kg twice daily by gavage, treatment from day 7 after implantation) is on record as “significantly enhanced survival”.
